The text below walks through data of patent US20220356186A1, “PERK INHIBITING PYRROLOPYRIMIDINE COMPOUNDS” (HiberCell, Inc., priority 2019, published 2022).

Assay [1] addresses T1, EIF2AK3 (PERK) catalytic domain (amino acids 536-1116) (Homo sapiens, UniProt Q9NZJ5).
T1 construct: EIF2AK3 (PERK) catalytic domain (amino acids 536-1116)
T1 sequence (Q9NZJ5 536-1116): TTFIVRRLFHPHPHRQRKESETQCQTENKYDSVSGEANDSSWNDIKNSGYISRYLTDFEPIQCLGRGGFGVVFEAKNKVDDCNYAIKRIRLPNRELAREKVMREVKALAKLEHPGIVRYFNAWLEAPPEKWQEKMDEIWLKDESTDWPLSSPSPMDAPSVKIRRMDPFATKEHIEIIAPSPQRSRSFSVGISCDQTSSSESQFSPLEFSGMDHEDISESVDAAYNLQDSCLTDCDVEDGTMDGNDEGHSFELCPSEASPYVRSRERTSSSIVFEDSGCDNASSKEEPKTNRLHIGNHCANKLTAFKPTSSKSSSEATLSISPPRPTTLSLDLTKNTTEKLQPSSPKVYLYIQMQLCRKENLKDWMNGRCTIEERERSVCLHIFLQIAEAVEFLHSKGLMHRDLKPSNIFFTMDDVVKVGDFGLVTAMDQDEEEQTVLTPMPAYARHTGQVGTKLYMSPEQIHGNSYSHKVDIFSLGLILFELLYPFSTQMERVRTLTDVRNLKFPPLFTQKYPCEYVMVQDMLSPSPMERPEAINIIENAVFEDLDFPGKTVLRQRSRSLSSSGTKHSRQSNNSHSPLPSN
Description: PERK in vitro activity assay (isolated), TR-FRET kinase assay. It is filed as biochemical. The following applies: isolated PERK enzyme, 1.5 μM ATP; read-out: Biochemical IC50. From the text:
PERK In Vitro Activity Assay (Isolated):
In vitro Inhibition of PERK Enzyme Activity (isolated) Recombinant human EIF2AK2 (PKR) catalytic domain (amino acids 252-551), EIF2AK3 (PERK) catalytic domain (amino acids 536-1116), GFP-eIF2a substrate, and Terbium-labelled phospho-eIF2a antibody is obtained (Invitrogen, Carlsbad, Calif.).
Express and purify HIS-SUMO-GCN2 catalytic domain (amino acids 584-1019) from E. coli. Perform TR-FRET kinase assays in the absence or presence of inhibitors in a reaction buffer consisting of 50 mM HEPES, pH 7.5, 10 mM MgCb, 1.0 mM EGTA, and 0.01% Brij-35, and 100-200 nM GFP-eIF2a substrate. […] Add test compound, initiate the reaction by addition of enzyme, and incubate at room temperature for 45 minutes. Stop the reaction by addition of EDTA to a final concentration of 10 mM, add Terbium-labelled phospho-eIF2a antibody at a final concentration of 2 nM, and incubate for 90 minutes. Monitor the resulting fluorescence in an EnVison® Multilabel reader (PerkinElmer, Waltham, Mass.). Determine TR-FRET ratios and the resulting IC50 values using a 4-parameter nonlinear logistic equation as shown: Y=(A+((B−A)/(1+((C/x)[…])))) where, Y=% specific inhibition, A=Bottom of the curve, B=Top of the curve, C=absolute IC50 (concentration causing 50% inhibition), and D=hill slope.

The test system of assay [2] is GFP-eIF2α in HEK293 cells. Description: PERK cellular assay, TR-FRET in HEK293-EGFP-eIF2a cells after tunicamycin-induced ER stress. Type of assay: cell-based. Particulars: HEK293-EGFP-eIF2a cells, tunicamycin 2 hours, read-out: Cellular eIF2α IC50. The method, then: Stable cell lines were created in HEK293 cells using lentiviral particles harboring an expression vector for GFP-eIF2α. Cells were selected using puromycin and enriched using fluorescence activated cell sorting against GFP. HEK293-EGFP-eIF2a cells were plated at 5000 cells/well in 384-well assay plates and incubated overnight at 37° C., 5% CO2. Inhibitor compounds were added to the wells by Echo acoustic dispensing and incubated for 30 minutes at 37° C., 5% CO2 prior to induction of ER stress by addition of tunicamycin to […] for 2 hours. Cells were lysed and TR-FRET was measured in an EnVision plate reader (PerkinElmer). FRET ratio data was normalized to signal from lysates treated with DMSO vehicle control and plotted as percent inhibition against 10-point; 3-fold dilution series of inhibitors. IC50 values were calculated using 4-parameter logistical fitting in XLFit.

Structures are written as SMILES. Read-outs that look alike come from different tables or passages of the source.

Turning to `Cn1cc(-c2ccc(NC(=O)C(O)c3cccc(F)c3)cc2Cl)c2c(N)ncnc21` (stereo not drawn) [Example 14, N-(4-(4-amino-7-methyl-7H-pyrrolo[2,3-d]pyrimidin-5-yl)-3-chlorophenyl)-2-(3-fluorophenyl)-2-hydroxyacetamide], the IC50 in assay [1] and in assay [2] was 1 to 25 nM in each case.

For the compound `Cc1cc(NC(=O)Cc2ccccc2Cl)ccc1-c1cn(C)c2ncnc(N)c12` [Example 149, N-(4-(4-amino-7-methyl-7H-pyrrolo[2,3-d]pyrimidin-5-yl)-3-methylphenyl)-2-(2-chlorophenyl)acetamide], the IC50 lay in the range of 1 to 25 nM in assay [1] and 26 to 50 nM in assay [2] (Homo sapiens, HEK293, 2 h).

As for `Cc1nc(N)c2c(-c3ccc(NC(=O)C(O)c4cc(F)cc(C(F)(F)F)c4)c(F)c3F)cn(C)c2n1` (single isomer, unassigned) [Example 115, N-(4-(4-amino-2,7-dimethyl-7H-pyrrolo[2,3-d]pyrimidin-5-yl)-2,3-difluorophenyl)-2-(3-fluoro-5-(trifluoromethyl)phenyl)-2-hydroxyacetamide], the IC50 in assay [1] and in assay [2] was 1 to 25 nM each time.

Consider `Cc1cc(NC(=O)CC2CC2)ccc1-c1cn(C)c2ncnc(N)c12` [Example 163, N-(4-(4-amino-7-methyl-7H-pyrrolo[2,3-d]pyrimidin-5-yl)-3-methylphenyl)-2-cyclopropyl-acetamide], for which the IC50 is above 5000 nM in assay [1] and above 5000 nM in assay [2] (Homo sapiens, HEK293, 2 h).

As to `Cc1cc(NC(=O)CCc2ccccc2)ccc1-c1cn(C)c2ncnc(N)c12` [Example 168, N-(4-(4-amino-7-methyl-7H-pyrrolo[2,3-d]pyrimidin-5-yl)-3-methylphenyl)-3-phenylpropanamide], the IC50 lay within 101 to 250 nM in assay [1] and 1000 to 2000 nM in assay [2] (Homo sapiens, HEK293, 2 h).

For `Cc1nc(N)c2c(-c3ccc(NC(=O)C(O)c4cccc(Cl)c4)cc3C)cn(C)c2n1` (stereo not drawn) [Example 36, N-(4-(4-amino-2,7-dimethyl-7H-pyrrolo[2,3-d]pyrimidin-5-yl)-3-methylphenyl)-2-(3-chlorophenyl)-2-hydroxyacetamide], the IC50 in assay [1] was 1 to 25 nM; in assay [2] it was 26 to 50 nM.

As to `Cc1nc(N)c2c(-c3ccc(NC(=O)C(O)c4cccc(F)c4)cc3C(F)(F)F)cn(C)c2n1` (stereo not drawn) [Example 19, N-(4-(4-amino-2,7-dimethyl-7H-pyrrolo[2,3-d]pyrimidin-5-yl)-3-(trifluoromethyl)phenyl)-2-(3-fluorophenyl)-2-hydroxyacetamide], the IC50 lay in the range of 1 to 25 nM in assay [1] and 101 to 250 nM in assay [2].

Take `Cc1nc(N)c2c(-c3c(C)cc(NC(=O)C(O)c4cccc(F)c4)cc3F)cn(C)c2n1` (stereo not drawn) [Example 125, N-(4-(4-amino-2,7-dimethyl-7H-pyrrolo[2,3-d]pyrimidin-5-yl)-3-fluoro-5-methylphenyl)-2-(3-fluorophenyl)-2-hydroxyacetamide]: the IC50 in assay [1] lay within 1 to 25 nM; in assay [2] (Homo sapiens, HEK293, 2 h), 51 to 100 nM.

`Cc1nc(N)c2c(-c3ccc(NC(=O)C(O)c4cccc(F)c4)cc3)cn(C)c2n1` (stereo not drawn) [Example 24, N-(4-(4-amino-2,7-dimethyl-7H-pyrrolo[2,3-d]pyrimidin-5-yl)phenyl)-2-(3-fluorophenyl)-2-hydroxyacetamide]: the IC50 is 26 to 50 nM in assay [1] and 1000 to 2000 nM in assay [2].

For the compound `Cc1nc(N)c2c(-c3c(C)cc(NC(=O)C(O)c4cccc(F)c4)cc3C)cn(C)c2n1` (stereo not drawn) [Example 126, N-(4-(4-amino-2,7-dimethyl-7H-pyrrolo[2,3-d]pyrimidin-5-yl)-3,5-dimethylphenyl)-2-(3-fluorophenyl)-2-hydroxyacetamide], the IC50 is 1 to 25 nM in assay [1] and 51 to 100 nM in assay [2] (Homo sapiens, HEK293, 2 h).

In the case of `CCc1cccc(C(O)C(=O)Nc2ccc(-c3cn(C)c4nc(C)nc(N)c34)c(C)c2)c1` (stereo not drawn) [Example 44, N-(4-(4-amino-2,7-dimethyl-7H-pyrrolo[2,3-d]pyrimidin-5-yl)-3-methylphenyl)-2-(3-ethylphenyl)-2-hydroxyacetamide], the IC50 fell in the range of 101 to 250 nM in assay [1] and 1000 to 2000 nM in assay [2].

For `Cc1nc(N)c2c(-c3ccc(NC(=O)C(O)c4cccc(Cl)c4)cc3Cl)cn(C)c2n1` (stereo not drawn) [Example 99, N-(4-(4-amino-2,7-dimethyl-7H-pyrrolo[2,3-d]pyrimidin-5-yl)-3-chlorophenyl)-2-(3-chlorophenyl)-2-hydroxyacetamide], the 50% inhibitory concentration (IC50) in assay [1] and in assay [2] was 1 to 25 nM throughout.

Consider `Cc1nc(N)c2c(-c3ccc(NC(=O)C(O)c4cc(F)cc(F)c4)cc3C)cn(C)c2n1` (stereo not drawn) [Example 52, N-(4-(4-amino-2,7-dimethyl-7H-pyrrolo[2,3-d]pyrimidin-5-yl)-3-methylphenyl)-2-(3,5-difluorophenyl)-2-hydroxyacetamide], for which the IC50 in assay [1] and in assay [2] was 1 to 25 nM each time.

On to `Cc1cc(NC(=O)N(C)c2ccccc2)ccc1-c1cn(C)c2ncnc(N)c12` [Example 171, 3-(4-(4-amino-7-methyl-7H-pyrrolo[2,3-d]pyrimidin-5-yl)-3-methylphenyl)-1-methyl-1-phenylurea], for which the IC50 in assay [1] was 101 to 250 nM; in assay [2] (Homo sapiens, HEK293, 2 h), 1000 to 2000 nM.

As for `Cc1cc(NC(=O)Oc2ccccc2)ccc1-c1cn(C)c2ncnc(N)c12` [Example 169, phenyl (4-(4-amino-7-methyl-7H-pyrrolo[2,3-d]pyrimidin-5-yl)-3-methylphenyl)carbamate], the IC50 in assay [1] was 3000 to 4000 nM; in assay [2] (Homo sapiens), above 5000 nM.

With `COc1cc(NC(=O)C(O)c2cccc(F)c2)ccc1-c1cn(C)c2ncnc(N)c12` (stereo not drawn) [Example 104, N-(4-(4-amino-7-methyl-7H-pyrrolo[2,3-d]pyrimidin-5-yl)-3-methoxyphenyl)-2-(3-fluorophenyl)-2-hydroxyacetamide], the IC50 lay within 26 to 50 nM in assay [1] and 101 to 250 nM in assay [2].

In the case of `Cc1cccc(CC(=O)Nc2ccc(-c3cn(C)c4ncnc(N)c34)c(C)c2)n1` [Example 136, N-(4-(4-amino-7-methyl-7H-pyrrolo[2,3-d]pyrimidin-5-yl)-3-methylphenyl)-2-(6-methylpyridin-2-yl)acetamide], the IC50 was in the range of 1 to 25 nM in assay [1] and 1 to 25 nM in assay [2] (Homo sapiens, HEK293, 2 h).

On to `Cc1cc(NC(=O)C(O)c2ccccc2F)ccc1-c1cn(C)c2ncnc(N)c12` (stereo not drawn) [Example 31, N-(4-(4-amino-7-methyl-7H-pyrrolo[2,3-d]pyrimidin-5-yl)-3-methylphenyl)-2-(2-fluorophenyl)-2-hydroxyacetamide], for which the IC50 in assay [1] was 1 to 25 nM; in assay [2] (Homo sapiens, HEK293, 2 h) it was 26 to 50 nM.

As to `Cc1nc(N)c2c(-c3ccc(NC(=O)C(O)c4ccccc4F)cc3C)cn(C)c2n1` (stereo not drawn) [Example 32, N-(4-(4-amino-2,7-dimethyl-7H-pyrrolo[2,3-d]pyrimidin-5-yl)-3-methylphenyl)-2-(2-fluorophenyl)-2-hydroxyacetamide], the IC50 in assay [1] was 101 to 250 nM; in assay [2] (Homo sapiens, HEK293, 2 h), 251 to 500 nM.

Consider `Cc1nc(N)c2c(-c3ccc(NC(=O)C(O)c4cccc(F)c4)cc3C(F)(F)F)cn(C)c2n1` (stereo not drawn) [Example 20, N-(4-(4-amino-2,7-dimethyl-7H-pyrrolo[2,3-d]pyrimidin-5-yl)-3-(trifluoromethyl)phenyl)-2-(3-fluorophenyl)-2-hydroxyacetamide], for which the IC50 in assay [1] fell in the range of 51 to 100 nM; in assay [2] it was 1000 to 2000 nM.

On to `Cc1nc(N)c2c(-c3ccc(NC(=O)C(O)c4cccc(F)c4)cc3)cn(C)c2n1` (stereo not drawn) [Example 23, N-(4-(4-amino-2,7-dimethyl-7H-pyrrolo[2,3-d]pyrimidin-5-yl)phenyl)-2-(3-fluorophenyl)-2-hydroxyacetamide], for which the IC50 in assay [1] was 1 to 25 nM; in assay [2] (Homo sapiens, HEK293, 2 h) it was 501 to 1000 nM.
